We go through 27 compounds from US8143288B2, “Inhibitors of HCV replication” (priority 2005, dated 2012).

In the assay the test system is HCV 1b-377-neo replicon cells. Put plainly: HCV replicon FRET assay. The class given is cell-based. To be noted: Hepatitis C virus; HCV replicon; read-out: Activity (EC50).
A word on the EC50: it is the concentration giving half of the maximal effect. For `CC(C)(C)OC(=O)N1CCC[C@H]1C(=O)Nc1ccc(/C=C/c2ccc(NC(=O)[C@@H]3CCCN3C(=O)OC(C)(C)C)cc2)cc1` [Example 21], the EC50 was 100 to 1000 nM. Regarding `O=C(Nc1ccc(/C=C/c2ccc(NC(=O)[C@@H]3C[C@H](O)CN3C(=O)OCc3ccccc3)cc2)cc1)[C@@H]1C[C@H](O)CN1C(=O)OCc1ccccc1` [Example 7], the EC50 is 0.1 to 90 nM. Next, `CN(C)CC(=O)N1CCC[C@H]1C(=O)Nc1ccc(/C=C/c2ccc(NC(=O)[C@@H]3CCCN3C(=O)CN(C)C)cc2)cc1` [Example 28]: 100 to 1000 nM; `O=C(Nc1ccc(/C=C/c2ccc(NC(=O)[C@@H]3CCCN3C(=O)C3CCC3)cc2)cc1)[C@@H]1CCCN1C(=O)c1ccccn1` [Example 85]: 0.1 to 90 nM; `O=C(O)CCC(=O)N1CCC[C@H]1C(=O)Nc1ccc(/C=C/c2ccc(NC(=O)[C@@H]3CCCN3C(=O)CCC(=O)O)cc2)cc1` [Example 30]: 100 to 1000 nM.

`CN(C)c1ccccc1C(=O)N1CCC[C@H]1C(=O)Nc1ccc(/C=C/c2ccc(NC(=O)[C@@H]3CCCN3C(=O)c3ccccc3N(C)C)cc2)cc1` [Example 144]: the EC50 is 1000 to 10000 nM. Next, `CN(C)CC(=O)N1CCC[C@H]1C(=O)Nc1ccc(/C=C/c2ccc(NC(=O)[C@@H]3CCCN3C(=O)Cc3cccs3)cc2)cc1` [Example 101]: 0.1 to 90 nM; `O=C(Nc1ccc(/C=C/c2ccc(NC(=O)[C@@H]3C[C@@H](O)CN3C(=O)OCc3ccccc3)cc2)cc1)[C@@H]1C[C@@H](O)CN1C(=O)OCc1ccccc1` [Example 4]: 0.1 to 90 nM. To `CN(C)[C@H]1C[C@@H](C(=O)Nc2ccc(/C=C/c3ccc(NC(=O)[C@@H]4C[C@H](N(C)C)CN4C(=O)[C@H]4CCCO4)cc3)cc2)N(C(=O)[C@H]2CCCO2)C1` [Example 226] belongs 100 to 1000 nM.

Turning to `CCCOc1ccccc1C(=O)N1CCC[C@H]1C(=O)Nc1ccc(/C=C/c2ccc(NC(=O)[C@@H]3CCCN3C(=O)c3ccccc3OCCC)cc2)cc1` [Example 134], the EC50 lay within 1000 to 10000 nM. Next, `CC(C)N(C(=O)N1CCC[C@H]1C(=O)Nc1ccc(/C=C/c2ccc(NC(=O)[C@@H]3CCCN3C(=O)N(C(C)C)C(C)C)cc2)cc1)C(C)C` [Example 290]: 0.1 to 90 nM; `O=C(Nc1ccc(/C=C/c2ccc(NC(=O)[C@@H]3CCCN3C(=O)[C@H](O)c3ccccc3)cc2)cc1)[C@@H]1CCCN1C(=O)[C@H](O)c1ccccc1` [Example 298]: 0.1 to 90 nM; `Cc1cc(CC(=O)N2CCC[C@H]2C(=O)Nc2ccc(/C=C/c3ccc(NC(=O)[C@@H]4CCCN4C(=O)CN(C)C)cc3)cc2)on1` [Example 97]: 0.1 to 90 nM. Next, `O=C(Cc1ccccc1)Nc1ccc(/C=C/c2ccc(NC(=O)[C@@H]3CCCN3C(=O)Cc3ccccc3)cc2)cc1` [Example 254]: 100 to 1000 nM; `O=C(Nc1ccc(/C=C/c2ccc(NC(=O)[C@@H]3CCCN3C(=O)c3ccccc3N3CCCCC3)cc2)cc1)[C@@H]1CCCN1C(=O)c1ccccc1N1CCCCC1` [Example 172]: 1000 to 10000 nM; `COc1ccc(OC)c(C(=O)N2CCC[C@H]2C(=O)Nc2ccc(/C=C/c3ccc(NC(=O)[C@@H]4CCCN4C(=O)c4cc(OC)ccc4OC)cc3)cc2)c1` [Example 145]: 100 to 1000 nM.

On to `O=C(Nc1ccc(/C=C/c2ccc(NC(=O)[C@@H]3C[C@@H](O)CN3C(=O)OCc3ccccc3)cc2)cc1)[C@@H]1CCCN1C(=O)Cc1ccccc1` [Example 275], for which the EC50 was in the range of 0.1 to 90 nM. To `CC(=O)N1CCCC1C(=O)Nc1ccc(/C=C/c2ccc(NC(=O)[C@@H]3CCCN3C(=O)Cc3ccccc3)cc2)cc1` (stereo partly drawn) [Example 251] belongs 0.1 to 90 nM. To `O=C(Nc1ccc(/C=C/c2ccc(N(C(=O)c3cccs3)C(=O)[C@@H]3CCCN3C(=O)c3cccs3)cc2)cc1)[C@@H]1CCCN1C(=O)c1cccs1` [Example 117] belongs 0.1 to 90 nM.

For `Cn1cccc1CC(=O)N1CCC[C@H]1C(=O)Nc1ccc(/C=C/c2ccc(NC(=O)[C@@H]3CCCN3C(=O)Cc3cccn3C)cc2)cc1` [Example 105], the EC50 was in the range of 0.1 to 90 nM.

Consider `CCO[C@H]1C[C@@H](C(=O)Nc2ccc(/C=C/c3ccc(NC(=O)[C@@H]4C[C@H](OCC)CN4C(=O)OCc4ccccc4)cc3)cc2)N(C(=O)OCc2ccccc2)C1` [Example 18], for which the EC50 fell in the range of 1000 to 10000 nM. Next, `CCC(C)NC(=O)O[C@@H]1C[C@@H](C(=O)Nc2ccc(/C=C/c3ccc(NC(=O)[C@@H]4C[C@@H](OC(=O)NC(C)CC)CN4C(=O)OCc4ccccc4)cc3)cc2)N(C(=O)OCc2ccccc2)C1` (stereo partly drawn) [Example 249]: 1000 to 10000 nM; `O=C(Nc1ccc(/C=C/c2ccc(NC(=O)[C@@H]3CCCN3C(=O)C3CCC3)cc2)cc1)[C@@H]1CCCN1C(=O)C1CCC1` [Example 44]: 0.1 to 90 nM.

As to `O=C(Nc1ccc(/C=C/c2ccc(NC(=O)[C@@H]3CCCN3C(=O)c3ccno3)cc2)cc1)[C@@H]1CCCN1C(=O)c1ccno1` [Example 79], the EC50 fell in the range of 0.1 to 90 nM. On to `CC(C)NC(=O)N1CCC[C@H]1C(=O)Nc1ccc(/C=C/c2ccc(NC(=O)[C@@H]3CCCN3C(=O)NC(C)C)cc2)cc1` [Example 285], for which the EC50 lay within 100 to 1000 nM. To `O=C(Nc1ccc(/C=C/c2ccc(NC(=O)[C@@H]3CCCN3C(=O)Cc3c[nH]cn3)cc2)cc1)[C@@H]1CCCN1C(=O)Cc1c[nH]cn1` [Example 42] belongs 1000 to 10000 nM; to `CSc1ncccc1C(=O)N1CCC[C@H]1C(=O)Nc1ccc(/C=C/c2ccc(NC(=O)[C@@H]3CCCN3C(=O)c3cccnc3SC)cc2)cc1` [Example 192], 100 to 1000 nM.
